System: bovine serum albumin (BSA) antigen
Experiment: Immunization, humoral response by ELISA
Type: in vivo, mice
Conditions: for Antibody titres (A410 nm): 12.5 μg BSA i.p. at days 0 and 14, sera diluted by a factor of 400
Description: For in vivo studies with archaeosomes (prepared from the TPL, or a lipid obtained in a biologically pure form from the indicated archaeobacterium) and conventional liposomes (prepared from DMPC:DMPG at 1.8:0.2 molar ratio, or DMPC:DMPG:CHOL at 1.8:0.2:1.5 molar ratio, or DMPC:DCP:CHOL at 7:1:2 molar ratio) containing entrapped antigen, the vesicles were prepared by pressure extrusion (at room temperature for archaeobacterial and at 35° C. for DMPC-containing lipids, using 400 nm pore size filters). About 20 mg dry weight of the dried lipid(s) was hydrated in 1 ml PBS containing either BSA (5 mg/ml), Cholera B toxin subunit (0.5 mg/ml), or O-chain polysaccharide (18 mg/ml). To entrap BSA in DSPC:DCP:CHOL (4:1:5, molar ratio), in DSPC:DCP:CHOL:CoQ10 (3:1:4:2, molar ratio), and M. mazei TPL:CoQ10 (8:2, molar ratio), the vesicles were prepared by the REV (at 55° C.)-sonication method described above. The BSA was encapsulated in these vesicles by the DRV method as described by New (13). The antigen that was not entrapped/associated with the vesicles was removed by centrifugation and washing as described for peroxidase-vesicles.
The immunization strategies were similar for each of the different experiments. For each experiment, details of the amounts and types of antigen/adjuvant injected, and the time intervals between injections is described in the appropriate figure legends. Freund's adjuvant (FA) encompasses Freund's complete adjuvant (CFA) and Freund's incomplete adjuvant (IFA) used at 62.5% strength in PBS. For each antigen/adjuvant preparation three mice were injected (unless indicated otherwise) i.p., i.m., or s.c. with antigens encapsulated in archaeosomes or liposomes (diluted in sterile PBS, pH 7.1), antigens emulsified in CFA, or with antigens diluted in PBS alone (final volume, 0.2 ml/mouse). For the second immunization, mice were injected with antigens encapsulated in archaeosomes or liposomes, or emulsified in IFA, or diluted in PBS. For experiments where a third or fourth injection was required, antigens were injected either encapsulated in the respective vesicle type or as bare antigen diluted in PBS. Mice were 6-8 weeks of age at the time of the first immunization.
Mice were bled from the tail veins usually four days after each injection. The blood was allowed to dot, and cells removed from the serum by centrifuging in serum separator tubes.
The humoral response was measured by the indirect enzyme-linked immunosorbent assay (ELISA) using a variety of solid-phase adsorbed antigens. BSA, Cholera B toxin subunit, or E. coli 0:157:H7 lipopolysaccharide was diluted in distilled water (15 μg/ml final concentration) and 100 μl/well was dried (overnight incubation at 37° C.) to coat the ELISA microplate wells. All indirect ELISA assays were performed using standard methods. Dilutions of antibody-containing sera were used as the first antibody and a 1/1500 dilution of HRP-conjugated goat anti-mouse IgG+IgM as the detection antibody.
The isotypes of anti-BSA antibodies raised in mouse sera were assayed by an ELISA method. Wells were coated with BSA (as above). Dilutions of each serum were titred with peroxidase-coupled sheep anti-mouse IgG1, IgG2a, IgG2b, IgG3, and IgM. All ELISA data are reported as the means ± sample standard deviations.

Bare BSA: bovine serum albumin antigen alone in PBS, without adjuvant or vesicle
Antibody titres (A410 nm) (Day 25): 0.064 ± 0.001 A410 nm | Antibody titres (A410 nm) (Day 35): 0.082 ± 0.007 A410 nm | Antibody titres (A410 nm) (Day 55): 0.075 ± 0.008 A410 nm | Antibody titre (A410 nm) (i.m., 12.5 μg antigen alone in PBS, sera diluted 400-fold): 0.063 ± 0.003 A410 nm | Immune response (Relative %) (i.p., 12.5 μg BSA, days 0 and 14, blood day 20, IgG + IgM, archaeobacterial lipids none): 6.9 ± 0.3 Relative % | Antibody titre (A410 nm) (i.p., 25 μg antigen alone in PBS, no carrier/adjuvant, sera diluted 400 fold): 0.137 ± 0.002 A410 nm | Anti-BSA antibody Concentration (i.p., antigen alone in PBS, undiluted sera): 10.5 µg/mL

— US6403117B1, “Archaesomes, archaeosomes containing coenzyme Q10 and other types of liposomes containing coenzyme Q10 adjuvants and as delivery vehicles” (National Research Council of Canada, priority 1995, dated 2002)
